From patent US20150299648A1, “IMPROVED CULTIVATION MEDIA AND PROCESS FOR IMPROVED PROTEIN PRODUCTION BY PICHIA STRAINS” (priority 2012, published 2015)

Legend:
[1] = tested on: glycoengineered P. pastoris (YGLY13979) strain producing a monoclonal antibody; test: Effect of maltitol and Mix2 supplements on fed-batch fermentation profile; type: cell-based, Pichia pastoris; conditions: for Cell lysis: methanol induction phase
Protocol: The osmoprotective effect of maltitol (50 g/L) in combination with a supplement comprising a mixture of nutrients (Mix2) consisting of amino acid (AA1), vitamins (Vit4), trace metal ions (TM4), and basal salts (BSM2) as described in Table 2 was also evaluated using a glycoengineered P. pastoris (YGLY13979) strain producing a monoclonal antibody was cultivated in 1 L bioreactors (Biostat Q-plus, Satorius, Germany).
A P. pastoris YGLY13979 producing a monoclonal antibody was cultivated in 1 L bioreactors (Biostat Q-plus, Satorius, Germany). For fermentation in 1 L bioreactor, a vial (1 mL) of RCB (Research Cell Bank) was inoculated into 200 mL of BSGY medium in 1 L-baffled flask. The culture incubated at 24° C., while shaking on an orbital shaker at 180 rpm for 48±4 h. The bioreactor was inoculated with a 10% volumetric ratio of seed to initial BSGY medium. Cultivation conditions were following: temperature set at 24±0.5° C., pH controlled at 6.5±0.1 with 30% ammonium hydroxide, dissolved oxygen was maintained at 20% of saturation by cascading agitation rate on the addition of pure oxygen to the fixed airflow rate of 0.7 vvm. The fermentation profile of the production strain was examined using four different cultivation conditions after batch phase.
For the control, a 50% glycerol solution containing 12.5 mL/L of PTM1 salts (6.5 g FeSO4.7H2O, 2.0 g ZnCl2, 0.6 g CuSO4.5H2O, 3.0 g MnSO4.7H2O, 0.5 g CoCl2.6H2O, 0.2 g NaMoO4.2H2O, 0.2 g biotin, 80 mg NaI, 20 mg H3BO4 per L) was fed constantly at an initial rate of 0.08 h^−1 for 8 h After depletion of the initial glycerol (4%).
For Mix2, 10 mL AA1, 4 mL Vit4, 4 mL TM4, and 4 mL BSM2 were mixed with 62.5 mL of 80% glycerol and 15.5 mL of water. The Mix2 solution was fed during the glycerol fed-batch period instead of regular glycerol solution, which was used for the control.
For Maltitol, 43.5 mL of 80% matitol solution was added into bioreactor to achieve 50 g/L concentration at the end of glycerol fed-batch phase.
For Maltitol+Mix2, two conditions of Maltitol and Mix2 were combined.
Induction was initiated after a 30 min starvation phase when methanol was fed. Methanol containing 12.5 mL/L of PTM1 salts (6.5 g FeSO4.7H2O, 2.0 g ZnCl2, 0.6 g CuSO4.5H2O, 3.0 g MnSO4.7H2O, 0.5 g CoCl2.6H2O, 0.2 g NaMoO4.2H2O, 0.2 g biotin, 80 mg NaI, 20 mg H3BO4 per L) was fed constantly starting at 1.33 g/L/h under methanol limited condition. Agitation speed was changed from cascade mode with agitation speed and pure oxygen.

[2] = Osmolality of sugar and sugar alcohol solutions (osmometer); type: physicochemical; conditions: 500 mM in water
Protocol: The sugar and sugar alcohol solutions used as osmoprotectant supplements were prepared at 500 mM in water and their osmolalities were measured using Osmometer (Multi-somotte, Model 2430, Precision Systems Inc, MA, USA). The osmolality of solution was directly proportional to the concentration of component in solution. For instance there was a linear relationship between sorbitol concentration (mM) and osmolality of the solution (mOsm/kg) as shown in FIG. 1A. The osmolalities of maltitol, sorbitol, glycerol, and glucose at 500 mM in water were 590±4, 544±3, 541±3, and 568±0 mOsm/kg respectively (FIG. 1B). The osmolaties of sorbose, mellibiose, ribose, quinic acid and myo-inositol at 500 Mm in water were (480±5), (500±5), (470±5), (480±5) AND (510±10), respectively.

OC[C@@H](O)[C@@H](O[C@H]1O[C@H](CO)[C@@H](O)[C@H](O)[C@H]1O)[C@H](O)[C@@H](O)CO [Maltitol, 4-O-α-glucopyranosyl-D-sorbitol]
Increase of maximum titer of anti-Her2 monoclonal antibody over control culture ([1]; 5% maltitol, 600 mOsm/kg in induction phase): 120% | Cell lysis ([1]; vs BSGY control): reduced the cell lysis significantly | Cell lysis ([1]; vs BSGY control, listed as maltitol): significantly reduced | Effective range of concentration in BSGY medium ([1]; to increase and maintain osmolality during induction phase): higher than 25 g/L | Cell yield ([1]; vs BSGY control): slight reduction of cell yield | Osmolality of solution [2]: 590±4 mOsm/kg
